Values of other authors as cited in PMC10582678 (Clinical and Translational Science, 2023).
Read-outs that look alike come from different tables or passages of the source.

Target: BTK (Homo sapiens, UniProt Q06187)
Settings: cited from earlier work

Sequence of BTK (Q06187 whole entry): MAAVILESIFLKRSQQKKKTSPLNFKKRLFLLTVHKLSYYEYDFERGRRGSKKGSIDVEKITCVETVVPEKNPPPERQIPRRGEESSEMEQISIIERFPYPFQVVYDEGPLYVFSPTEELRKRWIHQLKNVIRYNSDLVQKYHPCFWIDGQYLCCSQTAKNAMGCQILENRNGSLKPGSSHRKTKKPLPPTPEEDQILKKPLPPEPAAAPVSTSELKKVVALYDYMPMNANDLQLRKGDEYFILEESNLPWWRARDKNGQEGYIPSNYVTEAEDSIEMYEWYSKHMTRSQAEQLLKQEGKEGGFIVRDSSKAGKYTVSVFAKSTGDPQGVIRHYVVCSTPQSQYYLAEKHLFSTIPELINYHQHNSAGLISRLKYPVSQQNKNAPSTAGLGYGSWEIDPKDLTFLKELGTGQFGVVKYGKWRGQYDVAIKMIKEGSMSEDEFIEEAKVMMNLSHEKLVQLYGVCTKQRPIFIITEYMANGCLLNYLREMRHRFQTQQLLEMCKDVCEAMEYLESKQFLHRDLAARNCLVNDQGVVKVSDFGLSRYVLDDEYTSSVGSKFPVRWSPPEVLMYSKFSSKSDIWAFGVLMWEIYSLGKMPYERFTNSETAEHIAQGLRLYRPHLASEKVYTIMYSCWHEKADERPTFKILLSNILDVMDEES

Compound: CC#CC(=O)N1CCC[C@H]1c1nc(-c2ccc(C(=O)Nc3ccccn3)cc2)c2c(N)nccn12 [acalabrutinib]
- BTK receptor occupancy rate (twice daily dosing regimen): 96%

Compound: C=CC(=O)Nc1cccc(Nc2nc(Nc3ccc(OCCOC)cc3)ncc2F)c1 [spebrutinib]
- BTK receptor occupancy rate (b.i.d., patients with rheumatoid arthritis): 88%
